In one assay the target is acetylcholinesterase (Homo sapiens, UniProt P22303). Nature of the assay: Cholinesterase Inhibition Assay (photometric method of Ellman et al.). Type of assay: biochemical. On the technique in general: Ellman's reagent forms a yellow product with free thiols.
Assay [1] concerns cholinergically deficient memory. Nature of the assay: Dark Avoidance Assay (block of scopolamine-induced memory impairment). The class given is in vivo, mice. The settings on record: Mus musculus, read-out: % of Animals Greater than Scopolamine; for responders at 0.16 mg/kg: dose 0.16 mg/kg of body weight; for responders at 5 mg/kg: dose 5.0 mg/kg of body weight; for responders at 2.5 mg/kg: dose 2.5 mg/kg of body weight; for responders at 1.25 mg/kg: dose 1.25 mg/kg of body weight. The procedure: In this assay mice are tested for their ability to remember an unpleasant stimulus for a period of 24 hours. A mouse is placed in a chamber that contains a dark compartment; a strong incandescent light drives it to the dark compartment, where an electric shock is administered through metal plates on the floor. The animal is removed from the testing apparatus and tested again, 24 hours later, for the ability to remember the electric shock.
If scolopamine, an anticholinergic that is known to cause memory impairment, is administered before an animal's initial exposure to the test chamber, the animal re-enters the dark compartment shortly after being placed in the test chamber 24 hours later.

The mark [2] stands for this setting: mice, dose 0.63 mg/kg of body weight, retest after 24 hours.
[3] abbreviates: photometric method of Ellman, read-out: Cholinesterase Inhibition IC50.

Where a name gives a salt, the structure may show the parent alone. Read-outs that look alike come from different tables or passages of the source.

One may read the IC50 as the concentration that inhibits the measured activity by half.

Sequence of acetylcholinesterase (P22303 32-614): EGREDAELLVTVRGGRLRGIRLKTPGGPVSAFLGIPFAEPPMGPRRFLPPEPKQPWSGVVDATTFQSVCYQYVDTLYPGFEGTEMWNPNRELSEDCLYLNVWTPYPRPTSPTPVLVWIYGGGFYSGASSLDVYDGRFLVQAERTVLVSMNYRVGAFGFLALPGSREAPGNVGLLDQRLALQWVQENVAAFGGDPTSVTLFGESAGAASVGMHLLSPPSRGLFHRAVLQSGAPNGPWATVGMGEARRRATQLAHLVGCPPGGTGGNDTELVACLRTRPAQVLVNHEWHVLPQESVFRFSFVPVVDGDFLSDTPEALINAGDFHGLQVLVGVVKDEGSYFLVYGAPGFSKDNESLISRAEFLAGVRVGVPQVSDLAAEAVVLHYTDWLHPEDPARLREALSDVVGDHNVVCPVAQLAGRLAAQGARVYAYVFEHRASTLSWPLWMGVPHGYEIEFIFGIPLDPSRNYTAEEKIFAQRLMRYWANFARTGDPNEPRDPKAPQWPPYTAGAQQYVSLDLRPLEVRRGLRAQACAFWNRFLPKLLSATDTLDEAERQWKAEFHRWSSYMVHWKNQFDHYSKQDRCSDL

Molecule `OC1CCCc2nc3ccccc3c(NCc3ccccc3C(F)(F)F)c21` (stereo not shown) [1,2,3,4-Tetrahydro-9-(2-trifluoromethylbenzylamino)acridin-1-ol] returned an IC50 against acetylcholinesterase of 920 µM. Also, the responders at 0.16 mg/kg in assay [1] (mice, retest after 24 hours) turned out to be 38%.
Consider `OC1CCCc2nc3ccccc3c(NCc3ccc(C(F)(F)F)cc3)c21` (stereo not shown) [1,2,3,4-Tetrahydro-9-(4-trifluoromethylbenzylamino)acridin-1-ol], for which the IC50 against acetylcholinesterase was determined as 550 µM. In assay [1] (mice, retest after 24 hours), the responders at 0.16 mg/kg was found to be 22%.
On acetylcholinesterase, `O=C1CCCc2nc3ccccc3c(NCCCC(c3ccccc3)c3ccccc3)c21` [3,4-Dihydro-9-(4,4-diphenylbutylamino)acridin-1(2H)-one] yielded an IC50 of 13 µM. Besides, the responders at 0.63 mg/kg in assay [1] (setting [2]) turned out to be 50%.
On acetylcholinesterase, `O=C1CCCc2nc3ccccc3c(NCCCC(c3cccc(F)c3)c3cccc(F)c3)c21` [3,4-Dihydro-9-[4,4-bis(3-fluorophenyl)butylamino]acridin-1(2H)-one] came in with an IC50 of 1.9 µM. The responders at 5 mg/kg in assay [1] (mice, retest after 24 hours) was 40%.
As to `OC1CCCc2nc3ccccc3c(NCc3ccccc3Cl)c21` (stereo not shown) [9-(2-Chlorobenzylamino)-1,2,3,4-tetrahydroacridin-1-ol], at acetylcholinesterase, 130 µM corresponded to half-maximal inhibition (IC50). In assay [1] (mice, dose 0.31 mg/kg of body weight, retest after 24 hours), the responders at 0.31 mg/kg amounted to 27%.
On to `OC1CCCc2nc3ccccc3c(NCc3ccccc3F)c21` (stereo not shown) [9-(2-Fluorobenzylamino)-1,2,3,4-tetrahydroacridin-1-ol maleate], for which the midpoint of inhibition against acetylcholinesterase, the IC50, lay at 210 µM. In assay [1] (mice, retest after 24 hours), the responders at 2.5 mg/kg is 27%.
`COc1ccccc1CNc1c2c(nc3ccccc13)CCCC2O` (stereo not shown) [9-(2-Methoxybenzylamino)-1,2,3,4-tetrahydroacridin-1-ol]: the IC50 against acetylcholinesterase is 150 µM. The responders at 0.21 mg/kg in assay [1] (mice, dose 0.21 mg/kg of body weight, retest after 24 hours) is 33%.
The molecule `OC1CCCc2nc3ccccc3c(NCc3ccc(F)cc3)c21` (stereo not shown) [9-(4-fluorobenzylamino)-1,2,3,4-tetrahydroacridin-1-ol] had an IC50 on acetylcholinesterase of 110 µM. For the same molecule, in assay [1] (mice, retest after 24 hours), the responders at 1.25 mg/kg amounted to 33%.
As for `Nc1c2c(nc3cc(C(F)(F)F)ccc13)CCCC2O` (stereo not shown) [9-Amino-1,2,3,4-tetrahydro-6-trifluoromethylacridin-1-ol], the responders at 0.63 mg/kg in assay [1] (setting [2]) stood at 71%.
Still for that read-out and setting: in the case of `Nc1c2c(nc3ccccc13)CCCC2O` (stereo not shown) [9-Amino-1,2,3,4-tetrahydroacridin-1-ol] it was 33%.
Consider `Nc1c2c(nc3ccccc13)CCCC2=O` [9-Amino-3,4-dihydroacridin-1(2H)--one, 9-Amino-3,4-dihydroacridin-1(2H)-one], for which the IC50 on acetylcholinesterase (setting [3]) is 250 µM.
Molecule `Nc1c2c(nc3ccccc13)CCC=C2` [9-Amino-3,4-dihydroacridine] showed an IC50 against acetylcholinesterase of 6.5 µM. Moreover, the responders at 2.5 mg/kg in assay [1] (mice, retest after 24 hours) turned out to be 20%.
Take `OC1CCCc2nc3ccccc3c(NCc3ccccc3)c21` (stereo not shown) [9-Benzylamino-1,2,3,4-tetrahydroacridin-1-ol]: in assay [1] (mice, retest after 24 hours), the responders at 1.25 mg/kg was found to be 27%.
Turning to `O=C1CCCc2nc3cc(F)ccc3c(NCc3ccccc3)c21` [9-Benzylamino-3,4-dihydro-6-fluoroacridin-1(2H)-one, maleate], in assay [1] (mice, retest after 24 hours), the responders at 5 mg/kg turned out to be 40%.
As to `OC1CCCc2nc3ccccc3c(NCCc3ccccc3)c21` (stereo not shown) [9-Phenethylamino-1,2,3,4-tetrahydroacridin-1-ol], the 50% inhibitory concentration (IC50) on acetylcholinesterase (setting [3]) was determined as 240 µM.
As for `OC1CCCc2nc3ccccc3c(NCc3c(F)c(F)c(F)c(F)c3F)c21` (stereo not shown) [9-[(2,3,4,5,6-Pentafluorobenzyl)amino]-1,2,3,4-tetrahydroacridin-1-ol, fumarate], the IC50 against acetylcholinesterase stood at 350 µM. Further, the responders at 5 mg/kg in assay [1] (mice, retest after 24 hours) was found to be 20%.
With `CC[C@@H]1C(=O)OC[C@@H]1Cc1cncn1C` [Pilocarpine, reference compound], the responders at 5 mg/kg in assay [1] (mice, retest after 24 hours) was 13%.
For `Nc1c2c(nc3ccccc13)CCCC2` [Tacrine, 9-Amino-1,2,3,4-tetrahydroacridine, reference compound], the responders at 0.63 mg/kg in assay [1] (24 h) came out at 13%.

The values are drawn from patent publication US4695573A (Hoechst-Roussel Pharmaceuticals Inc., priority 1985, dated 1987).
